# Data reported in paper PMC10874388, “Cyclic peptides discriminate BCL-2 and its clinical mutants from BCL-XL by engaging a single-residue discrepancy” (Nature Communications, 2024).
# Where “and” joins values, the source holds several entries; their conditions need not be identical. Equal values may be shown once.
# System: PANC-1 cells
# Assay: Cell viability assay (CellTiter-Glo), PANC-1
# Assay type: cell-based
# Details: PNAC-1; for inhibition rate: fraction; for inhibition rate / raw viability reading: replicates
# Protocol: The cell lines Jurkat (TIB-152), El4 (TIB-39), Daudi (ccl-213), RS4:11 (crl-1873), A549 (ccl-185), HepG2 (hb-8065) and PANC-1 (crl-1469) were purchased from ATCC (American Type Culture Collection), and MGC-803 (C6582) was purchased from Beyotime (https://www.beyotime.com/product/C6582.htm). […] Daudi and RS4:11 cells were cultured in RPMI-1640 medium (HyClone, SH30809.01) and 10% FBS (Gibco, 10099-141), whereas HepG2, MGC-803 and PANC-1 cells were cultured in MDEM (HyClone, SH30243.01). Cells were maintained at 37 °C under a humidified, 5% (v/v) CO2-containing atmosphere.
# Cell viability was measured using CellTiter-Glo® 2.0 Reagent (Promega, G9242). […] After different inhibitors were added into serum-free medium and cultured for 4 h (RS4:11 for 6 h), FBS were supplemented to 10% and then incubated totally for 24 h or 48 h. Finally, the IC50 values were calculated based on measurements using a microplate reader (Thermo, Varioskan LUX). Statistical analysis was performed using software GraphPad Prism 7.0.
# Supplementary Figure 10 Functional mechanism of CPs. a. IC50 values of venetoclax against A549, MGC-803 and PANC-1 cells, measured after 48 h treatment by a CellTiter-Glo assay and calculated using Prism 7.0 by a nonlinear-fit method. Data are presented as mean ± s.d.; n= 6 biological replicates. b. […]
# Glo assay. Each data point represents the mean ± s.d. for 6 biological replicates.
# Supplementary Figure 11 IC50 values of different inhibitors against different cell lines. a-d. Viability of A549 (a), HepG2 (b), MGC-803 (c) and PANC-1 (d) cells treated with various concentrations of ABT-199 (venetoclax), and measured after 48 h by a CellTiter-Glo assay. e, f. Viability of Jurkat cells (e) and Daudi cells (f) treated with […]
# after 48 h by a CellTiter-Glo assay. Each data point represents the mean ± s.d. for 6 biological replicates.
# (1 picture or pasted object on this page, not shown here)
smiles,measurement,setting,value
CC1(C)CCC(CN2CCN(c3ccc(C(=O)NS(=O)(=O)c4ccc(NCC5CCOCC5)c([N+](=O)[O-])c4)c(Oc4cnc5[nH]ccc5c4)c3)CC2)=C(c2ccc(Cl)cc2)C1 [venetoclax],average (raw viability reading),ABT199 0.625 uM,745567
same,inhibition rate,ABT199 0.625 uM,-0.00675 and 0.06232 and 0.04686 and 0.01357 and 0.002949
same,raw viability reading,ABT199 0.625 uM,768100 and 715400 and 727200 and 752600 and 760700 and 749400
same,average (raw viability reading),ABT199 1.25 uM,742283
same,inhibition rate,ABT199 1.25 uM,0.02549 and 0.03519 and 0.03296 and 0.02484 and -0.003211 and 0.04725
same,raw viability reading,ABT199 1.25 uM,743500 and 736100 and 737800 and 744000 and 765400 and 726900
same,average (raw viability reading),ABT199 2.5 uM,777083
same,inhibition rate,ABT199 2.5 uM,-0.04175 and 0.01278 and 0.00793 and -0.01999 and -0.04882 and -0.0213
same,raw viability reading,ABT199 2.5 uM,794800 and 753200 and 756900 and 778200 and 800200 and 779200
same,average (raw viability reading),ABT199 5 uM,562150
same,inhibition rate,ABT199 5 uM,0.3097 and 0.2596 and 0.2661 and 0.2453 and 0.2389
same,raw viability reading,ABT199 5 uM,526700 and 564900 and 559900 and 575800 and 580700
same,average (raw viability reading),ABT199 10 uM,446683
same,inhibition rate,ABT199 10 uM,0.4023 and 0.4323 and 0.4298 and 0.4149 and 0.4042 and 0.4036
same,raw viability reading,ABT199 10 uM,456000 and 433100 and 435000 and 446400 and 454600 and 455000
same,average (raw viability reading),ABT199 20 uM,384133
same,inhibition rate,ABT199 20 uM,0.5271 and 0.5025 and 0.4945 and 0.4865 and 0.4715 and 0.4971
same,raw viability reading,ABT199 20 uM,360800 and 379600 and 385700 and 391800 and 403200 and 383700
